Assay results: US20120259008A1, “METHOD FOR TREATING ASTHENOPIA” (SUCAMPO AG, priority 2011, published 2012)

How the values were obtained:
Assay type in all cases: in vivo, human
[1] = single administration of eye drop to a subject who had eye pain; details: eye drop comprising 0.12%, after single administration, subject with eye pain
Excerpt: A subject who had eye pain received eye drop comprising 0.12% isopropyl unoprostonen. After single administration of it, eye pain was improved. On the other hand, after single administration of placebo, eye pain was not improved.

[2] = single administration of eye drop to a subject who had blurring of vision; details: eye drop comprising 0.12%, after single administration, subject with blurring of vision
Excerpt: A subject who had blurring of vision received eye drop comprising 0.12% isopropyl unoprostone. After single administration of it, eye discharge and blurry vision were improved. On the other hand, after single administration of placebo, eye discharge and blurry vision were not improved.

[3] = eye drop twice a day for seven days to a subject with presbyopia and astigmatism who was difficult to focus on the objects; details: eye drop comprising 0.12% twice a day
Excerpt: A subject who was difficult to focus on the objects even using the farsighted glasses received eye drop comprising 0.12% isopropyl unoprostone twice a day. They were presbyopia and astigmatism.

Structure (SMILES): CCCCCCCC(=O)CC[C@@H]1[C@@H](C/C=C\CCCC(=O)OC(C)C)[C@@H](O)C[C@H]1O [isopropyl unoprostone, (+)-isopropyl (Z)-7-[(1R,2R,3R,5S)-3,5-dihydroxy-2-(3-oxodecyl)cyclopentyl]hept-5-enoate]
- eye pain [1]: improved
- blurry vision [2]: improved
- eye discharge [2]: improved
- ability to focus on the objects (accommodative function) ([3]; after seven days administration, subject with presbyopia and astigmatism): able to focus on the objects easier and quicker than before the administration
- duration of the improvement in focusing ([3]; seven days administration): continued for three weeks
